Measured values as given in US20170072012A1, “USE OF GSMTX4 TO REDUCE ISCHEMIA REPERFUSION INJURY” (priority 2014, published 2017).

Tests used:
[1] = system: ischemic reperfusion injury in mouse heart; format: in vivo, C57B1/6J mice; conditions: 0.4 mg/kg tail vein 5 min before reperfusion; 4 h reperfusion; vehicle 16.5±1.2%; not statistically significant
Method: Acute GsMTx4-D treatment: All animal protocols in this study were approved by the Institutional Animal Care and Use Committee of the University at Buffalo-State University of New York. C57B1/6J mice were anesthetized with 80 mg/kg of sodium pentobarbital (Sigma, St. Louis, Mo.) via intraperitoneal injection (IP), intubated and ventilated with a respirator (Harvard apparatus, Holliston, Mass., USA) 17. Upon absence of a pedal reflex, surgery was performed under a stereomicroscope. Core body temperature was maintained at 37° C. with a heating pad. After a left lateral thoracotomy, the left anterior descending coronary artery (LAD) was occluded just underneath the left atrium for 20 min with an 8-0 nylon suture. […] A small piece of gauze was used to prevent arterial injury. After 20 min the ligature was removed and the tissue was reperfused for up to 4 h before euthanizing. Three different doses of GsMTx4-D (0.1, 1, 10 mg/kg), verapamil (0.4 mg/kg) or vehicle (saline 50 μL) were administered via tail vein injection 5 min before reperfusion (during induced ischemia). ECGs confirmed the hallmark ischemic ST segment elevation during coronary occlusion (AD Instruments, Colorado Springs, CO, USA). Each group included 5 independent experiments. At the conclusion of the study, mice were euthanized by IP injection of 270 mg/kg pentobarbital. GsMTx4-D pretreatment: To evaluate the effect of GsMTx4-D pretreatment, GsMTx4-D (50 mg/kg) or vehicle (saline 50 μL) were administered via IP injection once daily for 2 days prior to surgery. Ischemia was then elicited with the same 20 min coronary occlusion followed by 24 h reperfusion. Following reperfusion, the chest was closed in layers. A drop of lidocaine was put on the suture site and the mouse was slowly weaned off the ventilator when they resumed spontaneous breathing. The mouse was returned to its cage and kept warm and medicated for pain (buprenorphine). Each group included 5 independent experiments.
To measure infarct size, hearts were harvested and excised for dual staining at the conclusion of reperfusion. The non-necrotic tissue in the ischemic region was stained red with 2,3,5- triphenyltetrazolium (TTC) and non-ischemic regions were stained blue with Evans blue. The hearts were fixed and sectioned into 1 mm slices, photographed with a Lexica MZ95 microscope and analyzed with NIH ImageJ software (http://imagej.nih.gov/ij/) 19. The infarct size was calculated as the ratio of the percentage of myocardial necrosis to the ischemic Area At Risk (AAR).
To test whether GsMTx4-D protected the heart against reperfusion injury, we first tested three different doses of the peptide. The positive control was verapamil, a voltage-gated calcium channel inhibitor with established cardioprotective effects on IRI. C57B1/6 mice were subjected to 20 min occlusion of the LAD followed by 4 hours of reperfusion. Three different concentrations of GsMTx4-D (0.1, 1 and 10 mg/kg), verapamil (0.4 mg/kg), or vehicle (saline) were administered through tail vein injection 5 min before reperfusion. […] At the conclusion of reperfusion, the hearts were stained with TTC and Evans Blue (FIG. 2A). […] The verapamil group also had lower infarction size (14.0±0.4%), but the difference wasn't statistically significant. […] To evaluate whether pretreatment with GsMTx4-D could also protect the heart from I/R injury, GsMTx4-D (50 mg/kg) or vehicle (saline 50 μL) were administered daily via IP injection, for 2 days prior to I/R surgery. As before, ischemia was induced from 20 min LAD occlusion, but reperfusion was allowed to continue for 24 hrs. The chest was closed in layers, and animals were weaned off the ventilator when they resumed spontaneous breathing. […] The ratios of AAR to total myocardial area between the two groups were equal as determined by TTC and Evans Blue staining (FIG. 3A and B). […]

[2] = system: I/R induced arrhythmias in mouse heart; assay: Heart rhythm analysis (ECG) during reperfusion, I/R induced arrhythmia; format: in vivo, C57B1/6J mice; conditions: 0.4 mg/kg IV 5 min before reperfusion; vehicle 14.9±4.5; not significantly different
Method: During reperfusion we continuously recorded ECGs, from which mean heart rate, PR, QRS, and QT intervals were derived for each animal. We evaluated the incidence of arrhythmias by counting the incidences of arrhythmias including ventricular and supraventricular premature beats by summing the number of episodes based on limb lead recordings for 15 min after reperfusion. Ventricular premature beats are considered more severe. Each group contained 5 to 7 independent experiments (vehicle n=7, verapamil n=6, GsMTx4-D 0.1mg/kg n=5, 1 mg/kg n=6 and 10 mg/kg n=5).
Heart rate and rhythm were monitored by ECG to confirm the hallmark ischemic ST-segment elevation during coronary occlusion, and the gradually increasing inversion of the T-wave during reperfusion (FIG. 4A). Since generation of arrhythmias is a good indicator of the level of I/R damage, we counted ventricular and supraventricular premature beats occurring within 15 min of reperfusion (FIG. 4B). No ventricular tachycardia was observed during 20 min ischemia and 15 min reperfusion in the mouse heart. […] Considering that ventricular premature beats are indicative of more severe damage, the incidence of this specific arrhythmia was analyzed separately (FIG. 4 D). […] There was no difference in mean heart rate before ischemia (FIG. 4E). […] There was no difference in PR, QRS or QT intervals after treatment in all groups (data not shown).

## COc1ccc(CCN(C)CCCC(C#N)(c2ccc(OC)c(OC)c2)C(C)C)cc1OC (centres unmarked) [verapamil, reference compound]
[1]
  infarction size (infarct area / AAR): 14.0±0.4%
[2]
  total incidence of arrhythmias (ventricular and supraventricular premature beats): 5.7±1.2 incidence/15 min reperfusion
